Test results taken from ChEMBL document CHEMBL4627361, “Decades-old renin inhibitors are still struggling to find a niche in antihypertensive therapy. A fleeting look at the old and the promising new molecules” (Bioorg Med Chem, 2020).
In brackets after ≈: the same amount, converted by molar mass.

What was measured:
[1] = Aqueous solubility of compound in pH 7.4; assay type: physicochemical
[2] = Half life in human; assay type: ADME
[3] = Protein binding in human plasma; assay type: ADME, cell-free; conditions: read-out: PPB (converted)
[4] = Octanol/water partition co-efficient, log P of compound at pH 7.4; assay type: physicochemical

solubility [1]: 350 mg/mL (≈ 634 mM)
half-life [2]: 24 h
fraction unbound [3]: 0.505
logD [4]: 2.45
Structure (SMILES): COCCCOc1cc(C[C@@H](C[C@H](N)[C@@H](O)C[C@H](C(=O)NCC(C)(C)C(N)=O)C(C)C)C(C)C)ccc1OC
